This passage reports MIC results from patent US20250243245A1 (priority 2022, published 2025).

The experiment deals with E. coli strain BL21. The note with it: BL21, 24 h.

Where a SMILES comes first, the peptide text is derived from it.

In general, MIC refers to the least concentration at which growth counts as inhibited. Lower therefore signals greater potency. With `CC(C)C[C@H](NC(=O)[C@H](CO)NC(=O)[C@H](CCCCN)NC(=O)[C@H](CC(C)C)NC(=O)[C@H](CCCCN)NC(=O)[C@H](CCC(N)=O)NC(=O)[C@H](CC(C)C)NC(=O)[C@H](CC(C)C)NC(=O)[C@H](CCC(=O)O)NC(=O)[C@H](CCC(=O)O)NC(=O)[C@H](CC(C)C)NC(=O)[C@H](CCCNC(=N)N)NC(=O)[C@H](CCCCN)NC(=O)[C@@H]1CCCN1C(=O)[C@@H](N)CC(C)C)C(=O)N[C@@H](CCC(=O)O)C(=O)NCC(=O)N[C@@H](CO)C(=O)N[C@@H](CCCCN)C(=O)N[C@@H](C)C(=O)N[C@@H](Cc1c[nH]cn1)C(=O)N[C@@H](CCC(=O)O)C(=O)N[C@@H](CCCCN)C(=O)N[C@@H](CC(C)C)C(=O)N[C@@H](Cc1c[nH]cn1)C(=O)N[C@@H](CC(=O)O)C(=O)N[C@@H](Cc1c[nH]c2ccccc12)C(=O)N[C@H](C(=O)N[C@@H](CCCNC(=N)N)C(=O)N[C@@H](CCCCN)C(=O)O)[C@@H](C)O` [UGK-45] (H-LPKRLEELLQKLKSLEGSKAHEKLHDWTRK-OH; N-terminus and C-terminus assumed), the MIC is over 20 mM.
To `CC[C@H](C)[C@H](NC(=O)[C@H](CCCNC(=N)N)NC(=O)[C@H](CCCNC(=N)N)NC(=O)[C@H](CCC(N)=O)NC(=O)[C@H](Cc1c[nH]c2ccccc12)NC(=O)[C@@H](N)Cc1ccccc1)C(=O)N[C@@H](CCCNC(=N)N)C(=O)N[C@@H](CCCNC(=N)N)C(=O)N[C@@H](Cc1c[nH]c2ccccc12)C(=O)N[C@@H](CCCNC(=N)N)C(=O)N[C@@H](CCCNC(=N)N)C(=O)NCC(=O)N[C@@H](CO)C(=O)NCC(=O)N[C@@H](Cc1ccc(O)cc1)C(=O)NCC(=O)N[C@@H](CO)C(=O)N1CCC[C@H]1C(=O)NCC(=O)N[C@@H](CCCNC(=N)N)C(=O)N[C@@H](CCCNC(=N)N)C(=O)N[C@@H](Cc1c[nH]c2ccccc12)C(=O)N[C@@H](Cc1c[nH]c2ccccc12)C(=O)N[C@@H](CCCNC(=N)N)C(=O)N[C@@H](Cc1c[nH]c2ccccc12)C(=O)N[C@@H](Cc1c[nH]c2ccccc12)C(=O)N[C@@H](CCCNC(=N)N)C(=O)O` [Peptide 27P-2] (H-FWQRRIRRWRRGSGYGSPGRRWWRWWR-OH; N-terminus and C-terminus assumed) belongs 5 to 10 mM.
To `CC(C)C[C@H](NC(=O)[C@H](Cc1c[nH]cn1)NC(=O)[C@H](C)NC(=O)[C@H](CCCCN)NC(=O)[C@H](CO)NC(=O)CNC(=O)[C@H](CCC(=O)O)NC(=O)[C@H](CC(C)C)NC(=O)[C@H](CO)NC(=O)[C@H](CCCCN)NC(=O)[C@H](CC(C)C)NC(=O)[C@H](CCCCN)NC(=O)[C@H](CCC(N)=O)NC(=O)[C@H](CC(C)C)NC(=O)[C@H](CC(C)C)NC(=O)[C@H](CCC(=O)O)NC(=O)[C@H](CCC(=O)O)NC(=O)[C@@H]1CCCN1C(=O)[C@H](CCCNC(=N)N)NC(=O)[C@@H](N)CCCCN)C(=O)N[C@@H](CCC(N)=O)C(=O)N[C@@H](Cc1c[nH]cn1)C(=O)N[C@@H](Cc1c[nH]cn1)C(=O)N[C@@H](CC(=O)O)C(=O)N[C@@H](Cc1c[nH]c2ccccc12)C(=O)N[C@H](C(=O)N[C@@H](CO)C(=O)N[C@@H](CCCCN)C(=O)O)[C@@H](C)O` [UGK-41] (H-KRPEELLQKLKSLEGSKAHLQHHDWTSK-OH; N-terminus and C-terminus assumed) belongs over 20 mM; to `CC[C@H](C)[C@H](N)C(=O)N[C@@H](CCC(=O)O)C(=O)N[C@@H](CCCNC(=N)N)C(=O)N[C@@H](CO)C(=O)N[C@@H](CCCNC(=N)N)C(=O)N[C@@H](CC(N)=O)C(=O)N[C@@H](CC(C)C)C(=O)N[C@@H](CC(=O)O)C(=O)N[C@@H](Cc1c[nH]c2ccccc12)C(=O)N[C@@H](Cc1ccc(O)cc1)C(=O)N[C@@H](CCCCN)C(=O)NCC(=O)N1CCC[C@H]1C(=O)N[C@H](C(=O)N[C@@H](CC(C)C)C(=O)N[C@@H](CC(C)C)C(=O)N[C@@H](CC(=O)O)C(=O)N[C@@H](C)C(=O)N[C@@H](CC(C)C)C(=O)N[C@@H](CCCCN)C(=O)N[C@@H](CC(N)=O)C(=O)N[C@@H](CC(C)C)C(=O)N[C@@H](CC(N)=O)C(=O)N[C@@H](CCC(=O)O)C(=O)NCC(=O)N[C@@H](CCCCN)C(=O)N[C@@H](CCCNC(=N)N)C(=O)N1CCC[C@H]1C(=O)N[C@@H](CO)C(=O)N[C@@H](CC(=O)O)C(=O)N[C@@H](CCCCN)C(=O)O)[C@@H](C)O` [Peptide I31LB] (H-IERSRNLDWYKGPTLLDALKNLNEGKRPSDK-OH; N-terminus and C-terminus assumed), over 20 mM; to `CC[C@H](C)[C@H](N)C(=O)N[C@@H](CCC(=O)O)C(=O)N[C@@H](CCCNC(=N)N)C(=O)N[C@@H](CO)C(=O)N[C@H](C(=O)N[C@@H](CC(N)=O)C(=O)N[C@@H](CC(C)C)C(=O)N[C@@H](CC(=O)O)C(=O)N[C@@H](Cc1c[nH]c2ccccc12)C(=O)N[C@@H](Cc1ccc(O)cc1)C(=O)N[C@@H](CCCCN)C(=O)NCC(=O)N1CCC[C@H]1C(=O)N[C@H](C(=O)N[C@@H](CC(C)C)C(=O)N[C@@H](CC(C)C)C(=O)O)[C@@H](C)O)[C@@H](C)O` [Peptide 16P-1, reference compound] (H-IERSTNLDWYKGPTLL-OH; N-terminus and C-terminus assumed), over 20 mM.
To `CSCC[C@H](NC(=O)[C@H](Cc1c[nH]c2ccccc12)NC(=O)[C@H](CCC(N)=O)NC(=O)[C@H](Cc1c[nH]c2ccccc12)NC(=O)[C@H](Cc1ccccc1)NC(=O)[C@H](CCCNC(=N)N)NC(=O)[C@H](CCCNC(=N)N)NC(=O)[C@H](CCC(=O)O)NC(=O)[C@H](CC(C)C)NC(=O)[C@@H]1CCCN1C(=O)[C@H](CO)NC(=O)[C@H](CC(=O)O)NC(=O)[C@H](CC(C)C)NC(=O)[C@H](CC(C)C)NC(=O)[C@H](CCCNC(=N)N)NC(=O)[C@H](CCCNC(=N)N)NC(=O)[C@@H](NC(=O)[C@H](CC(C)C)NC(=O)[C@H](CCC(=O)O)NC(=O)[C@H](CCC(N)=O)NC(=O)[C@H](CC(C)C)NC(=O)[C@H](CCC(N)=O)NC(=O)[C@H](CCC(=O)O)NC(=O)[C@H](CO)NC(=O)CNC(=O)[C@H](CCCNC(=N)N)NC(=O)[C@@H]1CCCN1C(=O)[C@@H](N)CCCCN)[C@@H](C)O)C(=O)N[C@@H](CCCNC(=N)N)C(=O)N[C@@H](CCCNC(=N)N)C(=O)O` [UGK-37, KPRGSEQLQELTRRLLDSPLERRFWOWMRR] (H-KPRGSEQLQELTRRLLDSPLERRFWQWMRR-OH; N-terminus and C-terminus assumed) belongs over 20 mM.
In turn, `CC[C@H](C)[C@H](N)C(=O)N[C@@H](CCC(=O)O)C(=O)N[C@@H](CCCNC(=N)N)C(=O)N[C@@H](CO)C(=O)N[C@@H](CCCNC(=N)N)C(=O)N[C@@H](CC(N)=O)C(=O)N[C@@H](CC(C)C)C(=O)N[C@@H](CC(=O)O)C(=O)N[C@@H](Cc1c[nH]c2ccccc12)C(=O)N[C@@H](Cc1ccc(O)cc1)C(=O)N[C@@H](CCCCN)C(=O)NCC(=O)N1CCC[C@H]1C(=O)N[C@H](C(=O)N[C@@H](CC(C)C)C(=O)N[C@@H](CC(C)C)C(=O)N[C@@H](CC(=O)O)C(=O)N[C@@H](C)C(=O)N[C@@H](CC(C)C)C(=O)N[C@@H](CCCCN)C(=O)N[C@@H](CC(N)=O)C(=O)N[C@@H](CC(C)C)C(=O)N[C@@H](CC(N)=O)C(=O)N[C@@H](CCC(=O)O)C(=O)NCC(=O)N[C@@H](CCCCN)C(=O)N[C@@H](CCCNC(=N)N)C(=O)O)[C@@H](C)O` [Peptide I27AB] (H-IERSRNLDWYKGPTLLDALKNLNEGKR-OH; N-terminus and C-terminus assumed) displayed a minimal inhibitory concentration (MIC) of over 20 mM.
Take `CC[C@H](C)[C@H](NC(=O)[C@H](CCCCN)NC(=O)[C@H](CC(C)C)NC(=O)[C@@H](NC(=O)[C@H](CCCCN)NC(=O)[C@H](CCCCN)NC(=O)[C@@H](NC(=O)[C@H](CC(C)C)NC(=O)[C@H](CCCCN)NC(=O)[C@H](CCCCN)NC(=O)CNC(=O)[C@@H]1CCCN1C(=O)[C@H](CO)NC(=O)CNC(=O)[C@H](Cc1ccc(O)cc1)NC(=O)CNC(=O)[C@H](CO)NC(=O)CNC(=O)[C@H](CCCNC(=N)N)NC(=O)[C@H](CCCNC(=N)N)NC(=O)[C@H](Cc1c[nH]c2ccccc12)NC(=O)[C@H](CCCNC(=N)N)NC(=O)[C@H](CCCNC(=N)N)NC(=O)[C@@H](NC(=O)[C@H](CCCNC(=N)N)NC(=O)[C@H](CCCNC(=N)N)NC(=O)[C@H](CCC(N)=O)NC(=O)[C@H](Cc1c[nH]c2ccccc12)NC(=O)[C@@H](N)Cc1ccccc1)[C@@H](C)CC)[C@@H](C)CC)[C@@H](C)CC)C(=O)N[C@@H](CC(C)C)C(=O)O` [Peptide 30P-2] (H-FWQRRIRRWRRGSGYGSPGKKLIKKILKIL-OH; N-terminus and C-terminus assumed): the MIC was 1.25 to 2.5 mM.
To `CC[C@H](C)[C@H](NC(=O)[C@H](CCCNC(=N)N)NC(=O)[C@H](CCCNC(=N)N)NC(=O)[C@H](CCC(N)=O)NC(=O)[C@H](Cc1c[nH]c2ccccc12)NC(=O)[C@H](Cc1ccccc1)NC(=O)CNC(=O)[C@@H]1CCCN1C(=O)[C@H](CO)NC(=O)CNC(=O)[C@H](CCCCN)NC(=O)[C@H](CC(C)C)NC(=O)[C@H](CO)NC(=O)[C@H](CCCCN)NC(=O)[C@H](CC(C)C)NC(=O)[C@@H](NC(=O)[C@H](CCC(=O)O)NC(=O)[C@H](CC(C)C)NC(=O)[C@H](CC(C)C)NC(=O)[C@H](CCCCN)NC(=O)[C@H](CCC(N)=O)NC(=O)[C@@H]1CCCN1C(=O)[C@H](CC(C)C)NC(=O)[C@H](CCCCN)NC(=O)[C@@H](N)CCCCN)[C@@H](C)CC)C(=O)N[C@@H](CCCNC(=N)N)C(=O)N[C@@H](CCCNC(=N)N)C(=O)N[C@@H](Cc1c[nH]c2ccccc12)C(=O)N[C@@H](CCCNC(=N)N)C(=O)N[C@@H](CCCNC(=N)N)C(=O)O` [UGK-21] belongs 1.25 to 2.5 mM; to `CC[C@H](C)[C@H](NC(=O)[C@H](CC(N)=O)NC(=O)[C@H](CCCNC(=N)N)NC(=O)[C@H](CCC(N)=O)NC(=O)[C@H](Cc1c[nH]c2ccccc12)NC(=O)[C@H](CCC(N)=O)NC(=O)[C@@H](N)Cc1ccccc1)C(=O)N[C@@H](CCCNC(=N)N)C(=O)N[C@@H](CCCCN)C(=O)N[C@H](C(=O)N[C@@H](CCCNC(=N)N)C(=O)O)C(C)C` [Peptide 11P-2, FQWORNIRKVR, reference compound] (H-FQWQRNIRKVR-OH), over 20 mM.
